The target of data set [1] is T1, Phosphodiesterase PDE4A1A (Homo sapiens, UniProt P27815).
T1 construct: host or cells: insect Sf9 cells
As to the kind of experiment: Phosphodiesterase PDE4A1A enzyme assay. It is filed as biochemical.
Text: (§1) Reference standards are run as an integral part of each assay to ensure the validity of the results obtained. Reference Compounds: • Phosphodiesterase PDE10A2 Papaverine • Phosphodiesterase PDE11A4 Dipyridamole • Phosphodiesterase PDE1A MMPX • Phosphodiesterase PDE2A EHNA • Phosphodiesterase PDE3A Cilostamide • Phosphodiesterase PDE4A1A Rolipram • Phosphodiesterase PDE4B1 Rolipram • Phosphodiesterase PDE5A Zaprinast • Phosphodiesterase PDE6 Zaprinast • Phosphodiesterase PDE7A IBMX • Phosphodiesterase PDE7B IBMX • Phosphodiesterase PDE8A1 Dipyridamole • Phosphodiesterase PDE9A2 Zaprinast
PDE4 assays are performed using methods adapted from the literature. See Richter W, et al. (2001) Identification of inhibitor binding sites of the cAMP-specific phosphodiesterase 4. Cell Signal. 13(4): 287-297; Wang H, et al. (2005) Multiple elements jointly determine inhibitor selectivity of cyclic nucleotide phosphodiesterases 4 and 7. J Biol Chem. 280(35): 30949-30955.
Phosphodiesterase PDE4A1A; Phosphodiesterase PDE4B1; Phosphodiesterase PDE10A2; Phosphodiesterase PDE11A4; Phosphodiesterase PDE2A; Phosphodiesterase PDE3A; Phosphodiesterase PDE7A; Phosphodiesterase PDE7B; and Phosphodiesterase PDE8A1: • Source: Human recombinant insect Sf9 cells • Substrate: 0.10 μM FAM-cAMP • Vehicle: 1.00% DMSO • Significance Crit.: ≥50% of max stimulation or inhibition • Incubation Buffer: 10 mM Tris-HCl, pH 7.2, 10 mM MgCl2, 0.05% NaN3, 0.1% phosphate-free BSA • Quantitation Method: Quantitation of Fluorescein-AMP-IMAP • Pre-Incub. Time/Temp: 15 minutes @25° C. • Incubation Time/Temp: 30 minutes @25° C.
(§2) IC50 values are determined by a non-linear, least squares regression analysis using MathIQ™ (ID Business Solutions Ltd., UK). Where inhibition constants (Ki) are presented, the Ki values are calculated using the equation of Cheng and Prusoff (Cheng, Y., Prusoff, W. H., Biochem. Pharmacol. 22:3099-3108, 1973) using the observed IC50 of the tested compound, the concentration of radioligand employed in the assay, and the historical values for the KD of the ligand. Where presented, the Hill coefficient (nH), defining the slope of the competitive binding curve, is calculated using MathIQ™. […] Where IC50, Ki, and/or nH data are presented without Standard Error of the Mean (SEM), data are insufficient to be quantitative, and the values presented (Ki, IC50, nH) are interpreted with caution.
Reference standards are run as an integral part of each assay to ensure the validity of the results obtained. Rolipram is used for the PDE4 assays.
Phosphodiesterase PDE4A1A: • Source: Human recombinant insect Sf9 cells • Substrate: 0.10 μM FAM-cAMP • Vehicle: 1.00% DMSO • Significance Crit.: ≥50% of max stimulation or inhibition • Incubation Buffer: 10 mM Tris-HCl, pH 7.2, 10 mM MgCl2, 0.05% NaN3, 0.1% phosphate-free BSA • Quantitation Method: Quantitation of Fluorescein-AMP-IMAP • Pre-Incub. Time/Temp: 15 minutes @25° C. • Incubation Time/Temp: 30 minutes @25° C.
as §2, with “W.H.,” for “W. H.,”

The target in another data set is T2, Phosphodiesterase PDE1A (Homo sapiens, UniProt P54750).
T2 construct: host or cells: insect Sf9 cells
As to the kind of experiment: Phosphodiesterase PDE1A enzyme assay. The note with it: N=2, Example 3. In kind it is biochemical.
Text: as §1
Phosphodiesterase PDE1A; Phosphodiesterase PDE5A; and Phosphodiesterase PDE9A2: • Source: Human recombinant insect Sf9 cells • Substrate: 0.10 μM […] • Vehicle: 1.00% DMSO • Significance Crit.: ≥50% of max stimulation or inhibition • Incubation Buffer: 10 mM Tris-HCl, pH 7.2, 10 mM MgCl2, 0.05% NaN3, 0.1% phosphate-free BSA • Quantitation Method: Quantitation of Fluorescein-GMP-IMAP • Pre-Incub. Time/Temp: 15 minutes @25° C. • Incubation Time/Temp: 30 minutes @25° C.
IC50 values are determined by a non-linear, least squares regression analysis using MathIQ™ (ID Business Solutions Ltd., UK). […] Where presented, the Hill coefficient (nH), defining the slope of the competitive binding curve, is calculated using MathIQ™. […]

A short description of data set [2]: Plasma and ear skin concentration in IMQ model, day 6. In kind it is in vivo, BALB/c mice. The note with it: day 6, post 2h treatment, topical 0.5%. How it is done:
On day 6, blood is collected by retro-orbital bleeding under isoflurane anesthesia prior to euthanasia. Blood is collected in K2-EDTA tubes and plasma is separated and stored at −80° C. for further analysis (for test item concentration).
On day 6, post 2h treatment, plasma and ear skin concentration of animals treated with the compound of Formula (I) are estimated. […] The concentration in the ear skin is close to 976-fold more than the plasma levels.

T1 sequence (P27815 1-647 isoform P27815-4): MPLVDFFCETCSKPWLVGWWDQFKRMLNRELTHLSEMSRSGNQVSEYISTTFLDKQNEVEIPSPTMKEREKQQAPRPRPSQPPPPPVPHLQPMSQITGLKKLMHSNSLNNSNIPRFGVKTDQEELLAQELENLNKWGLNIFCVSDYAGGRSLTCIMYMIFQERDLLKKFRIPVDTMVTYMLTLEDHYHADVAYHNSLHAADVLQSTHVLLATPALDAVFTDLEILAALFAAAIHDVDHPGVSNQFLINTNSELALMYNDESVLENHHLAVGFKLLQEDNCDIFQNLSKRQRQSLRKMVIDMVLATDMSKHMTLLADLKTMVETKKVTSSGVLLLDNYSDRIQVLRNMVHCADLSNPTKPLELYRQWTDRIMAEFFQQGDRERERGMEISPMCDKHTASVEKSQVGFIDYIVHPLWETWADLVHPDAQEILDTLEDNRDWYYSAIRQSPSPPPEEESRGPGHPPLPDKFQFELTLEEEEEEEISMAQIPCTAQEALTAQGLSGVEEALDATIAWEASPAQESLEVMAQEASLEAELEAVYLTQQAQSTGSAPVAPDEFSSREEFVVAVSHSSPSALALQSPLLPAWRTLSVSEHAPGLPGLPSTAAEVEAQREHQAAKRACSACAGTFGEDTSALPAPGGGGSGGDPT
T2 sequence (P54750 whole entry): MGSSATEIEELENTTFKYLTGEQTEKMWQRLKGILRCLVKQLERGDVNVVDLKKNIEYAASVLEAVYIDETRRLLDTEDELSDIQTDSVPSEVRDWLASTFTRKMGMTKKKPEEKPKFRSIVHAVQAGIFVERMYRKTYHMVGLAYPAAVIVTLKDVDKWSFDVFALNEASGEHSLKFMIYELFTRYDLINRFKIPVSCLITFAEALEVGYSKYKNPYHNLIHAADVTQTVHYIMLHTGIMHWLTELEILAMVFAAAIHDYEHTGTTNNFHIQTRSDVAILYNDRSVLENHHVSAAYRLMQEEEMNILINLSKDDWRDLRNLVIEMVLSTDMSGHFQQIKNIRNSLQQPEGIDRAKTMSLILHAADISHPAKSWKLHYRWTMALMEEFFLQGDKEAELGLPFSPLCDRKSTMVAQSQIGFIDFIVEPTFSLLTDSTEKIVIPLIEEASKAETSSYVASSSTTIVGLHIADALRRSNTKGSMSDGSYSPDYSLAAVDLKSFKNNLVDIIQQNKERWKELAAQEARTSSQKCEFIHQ

Turning to `CNc1nc(Nc2ccccc2)nc(OCC(F)(F)C(F)F)n1` [compound of Formula (I), N^2-methyl-N^4-phenyl-6-(2,2,3,3-tetrafluoropropoxy)-1,3,5-triazine-2,4-diamine], the inhibition at 0.01 µM in data set [1] (10 nM, N=2, Example 4) was found to be 23%. Moreover, in data set [1] (0.03 μM, N=2, Example 4), the inhibition at 0.03 µM is 37%. The inhibition at 0.1 µM in data set [1] (0.1 μM, N=2, Example 4) came to 58%. Moreover, the inhibition at 0.3 µM in data set [1] (0.3 μM, N=2, Example 4) turned out to be 75%. The inhibition at 1 µM in data set [1] (1 μM, N=2, Example 4) was 87%. Besides, in data set [1] (3 μM, N=2, Example 4), the inhibition at 3 µM was 93%. Moreover, the inhibition at 10 µM in data set [1] (N=2, Example 3) was 99%; in data set [1] (N=2, Example 4), 96%; at Phosphodiesterase PDE1A it was -8%. For the same compound, it took 0.063 µM to reach half-maximal inhibition in data set [1] (Example 4) (IC50). In data set [2] (BALB/c, mouse, ear skin / plasma, read-out: Concentration in the ear skin relative to plasma levels), the Kp was roughly 976. Moreover, the “Concentrations in plasma and ear skin” value in data set [2] was “Significant concentrations”.
